From ChEMBL document CHEMBL1145472, “Genetic basis of resistance to fusidic acid in staphylococci” (2007)
≈ marks a conversion by molar mass, not a printed value.

Tests used:
Format in all cases: functional
Staphylococcus aureus [1] = assay: Antimicrobial activity against Staphylococcus aureus CS1128
Staphylococcus aureus [2] = assay: Antimicrobial activity against Staphylococcus aureus CS805
Staphylococcus aureus [3] = assay: Antimicrobial activity against Staphylococcus aureus CS860
Staphylococcus aureus [4] = assay: Antimicrobial activity against Staphylococcus aureus CS1076
Staphylococcus aureus [5] = assay: Antimicrobial activity against Staphylococcus aureus RN4220 expressing pCU1 gene
Staphylococcus aureus [6] = assay: Antimicrobial activity against Staphylococcus aureus RN4220 expressing (pCU1:SAS0043) (fusC) gene
Staphylococcus aureus [7] = assay: Antimicrobial activity against Staphylococcus aureus RN4220 expressing (pCU1:SSP2165) (fusD) gene
Staphylococcus aureus [8] = assay: Antimicrobial activity against Staphylococcus aureus RN4220 expressing pAJ96
Staphylococcus aureus [9] = assay: Antimicrobial activity against Staphylococcus aureus RN4220 expressing pAJ96:fusB
Staphylococcus aureus [10] = assay: Antimicrobial activity against Staphylococcus aureus RN4220 expressing (pAJ96:SAS0043) (fusC) gene
Staphylococcus aureus [11] = assay: Antimicrobial activity against Staphylococcus aureus RN4220
Staphylococcus aureus [12] = assay: Antimicrobial activity against Staphylococcus aureus CS957
Staphylococcus aureus [13] = assay: Antimicrobial activity against Staphylococcus aureus
Staphylococcus aureus [14] = assay: Antimicrobial activity against methicillin-susceptible Staphylococcus aureus 476
Staphylococcus aureus [15] = assay: Antimicrobial activity against Staphylococcus aureus 649 expressing pUB101
Staphylococcus aureus [16] = assay: Antimicrobial activity against Staphylococcus aureus RN4220 expressing pCU1:fusB gene
Staphylococcus aureus [17] = assay: Antimicrobial activity against Staphylococcus aureus CS992
Staphylococcus aureus [18] = assay: Antimicrobial activity against Staphylococcus aureus CS730
Staphylococcus aureus [19] = assay: Antimicrobial activity against Staphylococcus aureus CS808
Staphylococcus aureus [20] = assay: Antimicrobial activity against Staphylococcus aureus CS866
Staphylococcus aureus [21] = assay: Antimicrobial activity against Staphylococcus aureus CS602
Staphylococcus aureus [22] = assay: Antimicrobial activity against Staphylococcus aureus CS851
Staphylococcus aureus [23] = assay: Antimicrobial activity against Staphylococcus aureus CS979
Staphylococcus aureus [24] = assay: Antimicrobial activity against Staphylococcus aureus CS1083
Staphylococcus aureus [25] = assay: Antimicrobial activity against Staphylococcus aureus RN4220 expressing (pAJ96:SSP2165) (fusD) gene
[26] = tested on: Staphylococcus intermedius; assay: Antimicrobial activity against Staphylococcus intermedius CL1
[27] = tested on: Staphylococcus intermedius; assay: Antimicrobial activity against Staphylococcus intermedius CL2
[28] = tested on: Staphylococcus intermedius; assay: Antimicrobial activity against Staphylococcus intermedius NCTC 11048
[29] = tested on: Staphylococcus lugdunensis; assay: Antimicrobial activity against Staphylococcus lugdunensis 16641
[30] = tested on: Staphylococcus lugdunensis; assay: Antimicrobial activity against Staphylococcus lugdunensis 16496
[31] = tested on: Staphylococcus lugdunensis; assay: Antimicrobial activity against Staphylococcus lugdunensis 31440
[32] = tested on: Staphylococcus lugdunensis; assay: Antimicrobial activity against Staphylococcus lugdunensis 40869
[33] = tested on: Staphylococcus saprophyticus; assay: Antimicrobial activity against Staphylococcus saprophyticus ATCC 15305

CC(=O)O[C@H]1C[C@@]2(C)[C@@H](C[C@@H](O)[C@H]3[C@@]4(C)CC[C@@H](O)[C@@H](C)[C@@H]4CC[C@@]32C)/C1=C(\CCC=C(C)C)C(=O)O [FUSIDIC ACID]
MIC (Staphylococcus aureus [1]): 4 µg/mL (≈ 7.74 µM)
MIC (Staphylococcus aureus [2]): 8 µg/mL (≈ 15.5 µM)
MIC (Staphylococcus aureus [3]): 8 µg/mL (≈ 15.5 µM)
MIC (Staphylococcus aureus [4]): 8 µg/mL (≈ 15.5 µM)
MIC (Staphylococcus aureus [5]): 0.125 µg/mL (≈ 0.242 µM)
MIC (Staphylococcus aureus [6]): 16 µg/mL (≈ 31 µM)
MIC (Staphylococcus aureus [7]): 2 µg/mL (≈ 3.87 µM)
MIC (Staphylococcus aureus [8]): 0.125 µg/mL (≈ 0.242 µM)
MIC (Staphylococcus aureus [9]): 32 µg/mL (≈ 61.9 µM)
MIC (Staphylococcus aureus [10]): 16 µg/mL (≈ 31 µM)
MIC (Staphylococcus aureus [11]): 0.125 µg/mL (≈ 0.242 µM)
MIC (Staphylococcus aureus [12]): 3 µg/mL (≈ 5.81 µM)
MIC (Staphylococcus aureus [13]): 4 µg/mL (≈ 7.74 µM)
MIC (Staphylococcus aureus [14]): 8 µg/mL (≈ 15.5 µM)
MIC (Staphylococcus aureus [15]): 16 µg/mL (≈ 31 µM)
MIC (Staphylococcus aureus [16]): 16 µg/mL (≈ 31 µM)
MIC (Staphylococcus aureus [17]): 2 µg/mL (≈ 3.87 µM)
MIC (Staphylococcus aureus [18]): 3 µg/mL (≈ 5.81 µM)
MIC (Staphylococcus aureus [19]): 3 µg/mL (≈ 5.81 µM)
MIC (Staphylococcus aureus [20]): 3 µg/mL (≈ 5.81 µM)
MIC (Staphylococcus aureus [21]): 4 µg/mL (≈ 7.74 µM)
MIC (Staphylococcus aureus [22]): 4 µg/mL (≈ 7.74 µM)
MIC (Staphylococcus aureus [23]): 4 µg/mL (≈ 7.74 µM)
MIC (Staphylococcus aureus [24]): 4 µg/mL (≈ 7.74 µM)
MIC (Staphylococcus aureus [25]): 4 µg/mL (≈ 7.74 µM)
MIC [26]: 4 µg/mL (≈ 7.74 µM)
MIC [27]: 4 µg/mL (≈ 7.74 µM)
MIC [28]: 0.064 µg/mL (≈ 0.124 µM)
MIC [29]: 4 µg/mL (≈ 7.74 µM)
MIC [30]: 4 µg/mL (≈ 7.74 µM)
MIC [31]: 4 µg/mL (≈ 7.74 µM)
MIC [32]: 0.064 µg/mL (≈ 0.124 µM)
MIC [33]: 2 µg/mL (≈ 3.87 µM)
